“And” between values parts separate entries of the source, which are not always exact repeats. Identical values can stand only once. Like-named read-outs stand apart in the source and are kept apart here.
Key:
Assay in all cases: preservation efficacy test (PET), European Pharmacopoeia 5.1.3
Assay type in all cases: cell-based
Candida albicans = test system: Candida albicans
Escherichia coli = test system: Escherichia coli
Pseudomonas aeruginosa = test system: Pseudomonas aeruginosa
Aspergillus brasiliensis = test system: Aspergillus brasiliensis
Staphylococcus aureus = test system: Staphylococcus aureus
[1] = CA, 2 days after inoculation, use concentration in label
[2] = CA, 7 days after inoculation, use concentration in label
[3] = CA, 14 days after inoculation, use concentration in label
[4] = CA, 28 days after inoculation, use concentration in label
[5] = EC, 2 days after inoculation, use concentration in label
[6] = EC, 7 days after inoculation, use concentration in label
[7] = EC, 14 days after inoculation, use concentration in label
[8] = EC, 28 days after inoculation, use concentration in label
[9] = PA, 2 days after inoculation, use concentration in label
[10] = PA, 7 days after inoculation, use concentration in label
[11] = PA, 14 days after inoculation, use concentration in label
[12] = PA, 28 days after inoculation, use concentration in label
[13] = AB, 2 days after inoculation, use concentration in label
[14] = AB, 7 days after inoculation, use concentration in label
[15] = AB, 14 days after inoculation, use concentration in label
[16] = AB, 28 days after inoculation, use concentration in label
[17] = SA, 7 days after inoculation, use concentration in label
[18] = SA, 14 days after inoculation, use concentration in label
[19] = SA, 28 days after inoculation, use concentration in label
[20] = 2 days after inoculation, substance at given % in test formulation
[21] = 7 days after inoculation, substance at given % in test formulation
[22] = 14 days after inoculation, substance at given % in test formulation
[23] = 28 days after inoculation, substance at given % in test formulation

Question: What does the source list for `O=C([O-])c1ccccc1.[Na+]` [0.2% Sodium Benzoate]?
Answer: count at 7 days (Candida albicans): 250.000; count at 28 days (Candida albicans): 1; count at 2 days (Escherichia coli): 130.000; count at 7 days (Escherichia coli): 11.000; count at 14 days (Escherichia coli): 1; count at 28 days (Escherichia coli): 1; count at 2 days (Pseudomonas aeruginosa): 1; count at 7 days (Pseudomonas aeruginosa): 1; count at 14 days (Pseudomonas aeruginosa): 1; count at 28 days (Pseudomonas aeruginosa): 1; count at 2 days (Aspergillus brasiliensis): 760.000; count at 7 days (Aspergillus brasiliensis): 880.000; count at 14 days (Aspergillus brasiliensis): 200.000; count at 28 days (Aspergillus brasiliensis): 230.000; count at 2 days (Staphylococcus aureus): 320.000; count at 7 days (Staphylococcus aureus): 74.000; count at 14 days (Staphylococcus aureus): 1; count at 28 days (Staphylococcus aureus): 1

Question: With `O=P(O)(O)O[C@H]1[C@H](OP(=O)(O)O)[C@@H](OP(=O)(O)O)[C@H](OP(=O)(O)O)[C@@H](OP(=O)(O)O)[C@H]1OP(=O)(O)O` [0.4% phytic acid] as the molecule, how does the “count at 2 days” value (Candida albicans; [1]) read?
Answer: 640.000

Question: What about the “count at 7 days” value (Candida albicans; [2]) of the same molecule?
Answer: 550.000

Question: And the “count at 14 days” value (Candida albicans; [3])?
Answer: 570.000

Question: And the “count at 28 days” value (Candida albicans; [4])?
Answer: 520.000

Question: And the “count at 2 days” value (Escherichia coli; [5])?
Answer: 1

Question: And the “count at 7 days” value (Escherichia coli; [6])?
Answer: 1

Question: What about the “count at 14 days” value (Escherichia coli; [7]) of the same molecule?
Answer: 1

Question: What about the “count at 28 days” value (Escherichia coli; [8]) of the same molecule?
Answer: 1

Question: What about the “count at 2 days” value (Pseudomonas aeruginosa; [9]) of the same molecule?
Answer: 1

Question: What about the “count at 7 days” value (Pseudomonas aeruginosa; [10]) of the same molecule?
Answer: 1

Question: What about the “count at 14 days” value (Pseudomonas aeruginosa; [11]) of the same molecule?
Answer: 1

Question: What about the “count at 28 days” value (Pseudomonas aeruginosa; [12]) of the same molecule?
Answer: 1

Question: What about the “count at 2 days” value (Aspergillus brasiliensis; [13]) of the same molecule?
Answer: 510.000

Question: What about the “count at 7 days” value (Aspergillus brasiliensis; [14]) of the same molecule?
Answer: 290.000

Question: And the “count at 14 days” value (Aspergillus brasiliensis; [15])?
Answer: 180.000

Question: What about the “count at 28 days” value (Aspergillus brasiliensis; [16]) of the same molecule?
Answer: 150.000

Question: What about the “count at 2 days” value (Staphylococcus aureus; SA, 2 days after inoculation, use concentration in label) of the same molecule?
Answer: 1

Question: And the “count at 7 days” value (Staphylococcus aureus; [17])?
Answer: 1

Question: And the “count at 14 days” value (Staphylococcus aureus; [18])?
Answer: 1

Question: What about the “count at 28 days” value (Staphylococcus aureus; [19]) of the same molecule?
Answer: 1

Question: What does the source list for `Cc1ccc(C(C)C)c(O)c1` [0.1% Thymol]?
Answer: count at 2 days (Candida albicans; [1]): 69.000; count at 7 days (Candida albicans; [2]): 640.000; count at 14 days (Candida albicans; [3]): 180; count at 28 days (Candida albicans; [4]): 1.400; count at 2 days (Escherichia coli; [5]): 720.000; count at 7 days (Escherichia coli; [6]): 200.000; count at 14 days (Escherichia coli; [7]): 200; count at 28 days (Escherichia coli; [8]): 27; count at 2 days (Pseudomonas aeruginosa; [9]): 1; count at 7 days (Pseudomonas aeruginosa; [10]): 1; count at 14 days (Pseudomonas aeruginosa; [11]): 1; count at 28 days (Pseudomonas aeruginosa; [12]): 1; count at 2 days (Aspergillus brasiliensis; [13]): 580.000; count at 7 days (Aspergillus brasiliensis; [14]): 520.000; count at 14 days (Aspergillus brasiliensis; [15]): 290.000; count at 28 days (Aspergillus brasiliensis; [16]): 650.000; count at 7 days (Staphylococcus aureus; [17]): 23.000; count at 14 days (Staphylococcus aureus; [18]): 120; count at 28 days (Staphylococcus aureus; [19]): 1

Question: For `COC(=O)c1ccc(O)cc1` [0.1% Methylparaben], which “CA germ count, 2 days” value (Candida albicans; [20]) is on record?
Answer: 100.000

Question: What about the “CA germ count, 7 days” value (Candida albicans; [21]) of the same molecule?
Answer: 210.000

Question: What about the “CA germ count, 14 days” value (Candida albicans; [22]) of the same molecule?
Answer: 85.000

Question: And the “CA germ count, 28 days” value (Candida albicans; [23])?
Answer: 11.000

Question: What about the “EC germ count, 2 days” value (Escherichia coli; [20]) of the same molecule?
Answer: 680.000

Question: And the “EC germ count, 7 days” value (Escherichia coli; [21])?
Answer: 18.000

Question: And the “EC germ count, 14 days” value (Escherichia coli; [22])?
Answer: 45

Question: What about the “EC germ count, 28 days” value (Escherichia coli; [23]) of the same molecule?
Answer: 1

Question: And the “PA germ count, 2 days” value (Pseudomonas aeruginosa; [20])?
Answer: 1

Question: And the “PA germ count, 7 days” value (Pseudomonas aeruginosa; [21])?
Answer: 1

Question: And the “PA germ count, 14 days” value (Pseudomonas aeruginosa; [22])?
Answer: 1

Question: And the “PA germ count, 28 days” value (Pseudomonas aeruginosa; [23])?
Answer: 1

Question: And the “AB germ count, 2 days” value (Aspergillus brasiliensis; [20])?
Answer: 300.000

Question: And the “AB germ count, 7 days” value (Aspergillus brasiliensis; [21])?
Answer: 690.000

Question: What about the “AB germ count, 14 days” value (Aspergillus brasiliensis; [22]) of the same molecule?
Answer: 300.000

Question: And the “AB germ count, 28 days” value (Aspergillus brasiliensis; [23])?
Answer: 240.000

Question: And the “SA germ count, 7 days” value (Staphylococcus aureus; [21])?
Answer: 6.100

Question: What about the “SA germ count, 14 days” value (Staphylococcus aureus; [22]) of the same molecule?
Answer: 140

Question: And the “SA germ count, 28 days” value (Staphylococcus aureus; [23])?
Answer: 1

Question: How did the “count at 14 days” value (Candida albicans; [3]) turn out when `O=C([O-])CC[C@@H](C(=O)[O-])N(CC(=O)[O-])CC(=O)[O-].[Na+].[Na+].[Na+].[Na+]` was run?
Answer: 200.000

Question: And the “count at 28 days” value (Candida albicans; [4])?
Answer: 390.000

Question: What about the “count at 2 days” value (Escherichia coli; [5]) of the same molecule?
Answer: 50.000

Question: And the “count at 7 days” value (Escherichia coli; [6])?
Answer: 23.000

Question: What about the “count at 14 days” value (Escherichia coli; [7]) of the same molecule?
Answer: 450.000

Question: And the “count at 2 days” value (Pseudomonas aeruginosa; [9])?
Answer: 43.000

Question: And the “count at 7 days” value (Pseudomonas aeruginosa; [10])?
Answer: 95.000

Question: What about the “count at 14 days” value (Pseudomonas aeruginosa; [11]) of the same molecule?
Answer: 510.000

Question: And the “count at 28 days” value (Pseudomonas aeruginosa; [12])?
Answer: 350.000

Question: And the “count at 7 days” value (Aspergillus brasiliensis; [14])?
Answer: 440.000

Question: What about the “count at 14 days” value (Aspergillus brasiliensis; [15]) of the same molecule?
Answer: 720.000

Question: And the “count at 28 days” value (Aspergillus brasiliensis; [16])?
Answer: 660.000

Question: And the “count at 7 days” value (Staphylococcus aureus; [17])?
Answer: 810.000

Question: How did the “PA germ count, 28 days” value (Pseudomonas aeruginosa) turn out when `O=C([O-])c1ccccc1.[Na+]` [0.1% Sodium Benzoate] was run?
Answer: 18.000 and 10

Question: What about the “AB germ count, 14 days” value (Aspergillus brasiliensis) of the same molecule?
Answer: 20.000

Question: And the “AB germ count, 28 days” value (Aspergillus brasiliensis)?
Answer: 4.800

Question: What about the “SA germ count, 2 days” value (Staphylococcus aureus) of the same molecule?
Answer: 14.000 and 10

Question: And the “SA germ count, 7 days” value (Staphylococcus aureus)?
Answer: 9.800 and 10

Reference: patent publication US20230293407A1, “Compositions Comprising (Bio)-Alkanediols with Antimicrobials for Product Protection” (Symrise AG, priority 2020, published 2023)
